Key:
[1] = tested on: HOP-92; test: NCI SRB cytotoxicity, Non-small-cell lung HOP-92; assay type: cell-based, human; conditions: HOP-92, Non-small-cell lung, 48 h
Method: (§1) Biological Activity: In vitro biological activity studies were carried out at National Cancer Institute (U.S.A.).
(§2) For each compound, dose response curves for each cell line were measured at a minimum of five concentrations at 10 fold dilutions. A protocol of 48 h continuous drug exposure was used, and a sulforhodamine B (SRB) protein assay was used to estimate cell viability or growth. The concentration causing 50% cell growth inhibition (GI50), total cell growth inhibition (TGI, 0% growth) and 50% cell death (LC50, −50% growth) compared with the control was calculated.

[2] = tested on: SK-OV-3; test: NCI SRB cytotoxicity, Ovarian SK-OV-3; assay type: cell-based, human; conditions: SK-OV-3, Ovarian, 48 h
Method: as §1, §2

[3] = tested on: A498; test: NCI SRB cytotoxicity, Renal A498; assay type: cell-based, human; conditions: 48 h
Method: as §1, §2

[4] = tested on: K-62; test: NCI SRB cytotoxicity, Leukemia K-62; assay type: cell-based, human; conditions: K-62, Leukemia, 48 h
Method: as §1, §2

[5] = tested on: human tumor cell lines; test: NCI in vitro cytotoxicity SRB assay, mean graph midpoints over the panel; assay type: cell-based; conditions: 48 h continuous exposure
Method: as §1, §2

[6] = tested on: COLO 205; test: NCI SRB cytotoxicity, Colon COLO 205; assay type: cell-based, human; conditions: COLO 205, Colon, 48 h
Method: as §1, §2

[7] = tested on: NCI-H522; test: NCI SRB cytotoxicity, Non-small-cell lung NCI-H522; assay type: cell-based, human; conditions: 48 h
Method: as §1, §2

[8] = tested on: UACC-257; test: NCI SRB cytotoxicity, Melanoma UACC-257; assay type: cell-based, human; conditions: UACC-257, Melanoma, 48 h
Method: as §1, §2

[9] = tested on: RPMI-8226; test: NCI SRB cytotoxicity, Leukemia RPMI-8226; assay type: cell-based, human; conditions: RPMI-8226, Leukemia, 48 h
Method: as §2

[10] = tested on: NCI-H23; test: NCI SRB cytotoxicity, Non-small-cell lung NCI-H23; assay type: cell-based, human; conditions: 48 h
Method: as §1, §2

[11] = tested on: SW-620; test: NCI SRB cytotoxicity, Colon SW-620; assay type: cell-based, human; conditions: SW-620, Colon, 48 h
Method: as §1, §2

[12] = tested on: SF-539; test: NCI SRB cytotoxicity, CNS SF-539; assay type: cell-based, human; conditions: SF-539, CNS, 48 h
Method: as §1, §2

[13] = tested on: KM-12; test: NCI SRB cytotoxicity, Colon KM-12; assay type: cell-based, human; conditions: KM-12, Colon, 48 h
Method: as §1, §2

[14] = tested on: RXF 393; test: NCI SRB cytotoxicity, Renal RXF 393; assay type: cell-based, human; conditions: RXF 393, Renal, 48 h
Method: as §2

[15] = tested on: HT-29; test: NCI SRB cytotoxicity, Colon HT-29; assay type: cell-based, human; conditions: HT-29, Colon, 48 h
Method: as §1, §2

[16] = tested on: SF-295; test: NCI SRB cytotoxicity, CNS SF-295; assay type: cell-based, human; conditions: SF-295, CNS, 48 h
Method: as §1, §2

[17] = tested on: SK-MEL-5; test: NCI SRB cytotoxicity, Melanoma SK-MEL-5; assay type: cell-based, human; conditions: SK-MEL-5, Melanoma, 48 h
Method: as §1, §2

[18] = tested on: OVCAR-8; test: NCI SRB cytotoxicity, Ovarian OVCAR-8; assay type: cell-based, human; conditions: OVCAR-8, Ovarian, 48 h
Method: as §1, §2

[19] = tested on: T-47D; test: NCI SRB cytotoxicity, Breast T-47D; assay type: cell-based, human; conditions: 48 h
Method: as §1, §2

[20] = tested on: BT-549; test: NCI SRB cytotoxicity, Breast BT-549; assay type: cell-based, human; conditions: BT-549, Breast, 48 h
Method: as §1, §2

SMILES: COc1cc2c(cc1OCCN1CCN(CCOc3cc4c(cc3OC)C(=O)N3CCC[C@H]3C=N4)CC1)N=C[C@@H]1CCCN1C2=O [Compound VIa, 1,1′-{[(bisethane-1,N-diyl)piperazine]dioxy}bis[(11aS)-7-methoxy-1,2,3,11a-tetrahydro-5H-pyrrolo[2,1-c][1,4]benzodiazepin-5-one]]
- Log GI 50 [1]: −4.68 mol/L
- Log LC 50 [1]: −4.00 mol/L
- Log GI 50 [2]: −4.00 mol/L
- Log LC 50 [2]: −4.00 mol/L
- Log GI 50 [3]: −4.29 mol/L
- Log LC 50 [3]: −4.00 mol/L
- Log GI 50 [4]: −4.58 mol/L
- Log LC 50 [4]: −4.00 mol/L
- Log10 GI50 mean graph midpoint (MG_MID) [5]: −4.69
- Log10 LC50 mean graph midpoint (MG_MID) [5]: −4.03
- Log10 TGI mean graph midpoint (MG_MID) [5]: −4.16
- Log GI 50 [6]: −4.66 mol/L
- Log LC 50 [6]: −4.00 mol/L
- Log GI 50 [7]: −4.94 mol/L
- Log LC 50 [7]: −4.00 mol/L
- Log GI 50 [8]: −4.49 mol/L
- Log LC 50 [8]: −4.00 mol/L
- Log GI 50 [9]: −6.08 mol/L
- Log LC 50 [9]: −4.33 mol/L
- Log GI 50 [10]: −4.76 mol/L
- Log LC 50 [10]: −4.00 mol/L
- Log GI 50 [11]: −4.68 mol/L
- Log LC 50 [11]: −4.00 mol/L
- Log GI 50 [12]: −4.97 mol/L
- Log LC 50 [12]: −4.00 mol/L
- Log GI 50 [13]: −4.70 mol/L
- Log LC 50 [13]: −4.04 mol/L
- Log GI 50 [14]: −4.23 mol/L
- Log LC 50 [14]: −4.00 mol/L
- Log GI 50 [15]: −4.58 mol/L
- Log LC 50 [15]: −4.00 mol/L
- Log GI 50 [16]: −5.06 mol/L
- Log LC 50 [16]: −4.00 mol/L
- Log GI 50 [17]: −4.75 mol/L
- Log LC 50 [17]: −4.00 mol/L
- Log GI 50 [18]: −4.58 mol/L
- Log LC 50 [18]: −4.00 mol/L
- Log GI 50 [19]: −4.57 mol/L
- Log LC 50 [19]: −4.00 mol/L
- Log GI 50 [20]: −4.56 mol/L
- Log LC 50 [20]: −4.00 mol/L

SMILES: COc1cc2c(cc1OCCCN1CCN(CCCOc3cc4c(cc3OC)C(=O)N3CCC[C@H]3C=N4)CC1)N=C[C@@H]1CCCN1C2=O [Compound VIb, 1,1′-{[(bispropane-1,N-diyl)piperazine]dioxy}bis[(11aS)-7-methoxy-1,2,3,11a-tetrahydro-5H-pyrrolo[2,1-c][1,4]benzodiazepin-5-one]]
- Log GI 50 [1]: −6.81 mol/L
- Log LC 50 [1]: −4.00 mol/L
- Log GI 50 [3]: −5.73 mol/L
- Log LC 50 [3]: −4.00 mol/L
- Log GI 50 [4]: −5.76 mol/L
- Log LC 50 [4]: −4.00 mol/L
- Log10 GI50 mean graph midpoint (MG_MID) [5]: −5.19
- Log10 LC50 mean graph midpoint (MG_MID) [5]: −4.01
- Log10 TGI mean graph midpoint (MG_MID) [5]: −4.22
- Log GI 50 [6]: −5.34 mol/L
- Log LC 50 [6]: −4.00 mol/L
- Log GI 50 [7]: −6.40 mol/L
- Log LC 50 [7]: −4.00 mol/L
- Log GI 50 [8]: −4.45 mol/L
- Log LC 50 [8]: −4.00 mol/L
- Log GI 50 [9]: −6.73 mol/L
- Log LC 50 [9]: −4.00 mol/L
- Log GI 50 [10]: −4.89 mol/L
- Log LC 50 [10]: −4.00 mol/L
- Log GI 50 [11]: −6.23 mol/L
- Log LC 50 [11]: −4.00 mol/L
- Log GI 50 [12]: −6.21 mol/L
- Log LC 50 [12]: −4.00 mol/L
- Log GI 50 [13]: −4.64 mol/L
- Log LC 50 [13]: −4.00 mol/L
- Log GI 50 [14]: −5.68 mol/L
- Log LC 50 [14]: −4.09 mol/L
- Log GI 50 [15]: −4.46 mol/L
- Log LC 50 [15]: −4.00 mol/L
- Log GI 50 [16]: −4.99 mol/L
- Log LC 50 [16]: −4.00 mol/L
- Log GI 50 [17]: −5.66 mol/L
- Log LC 50 [17]: −4.50 mol/L
- Log GI 50 [18]: −4.48 mol/L
- Log LC 50 [18]: −4.00 mol/L
- Log GI 50 [19]: −5.16 mol/L
- Log LC 50 [19]: −4.00 mol/L
- Log GI 50 [20]: −5.77 mol/L
- Log LC 50 [20]: −4.00 mol/L

SMILES: COc1cc2c(cc1OCCCCN1CCN(CCCCOc3cc4c(cc3OC)C(=O)N3CCC[C@H]3C=N4)CC1)N=C[C@@H]1CCCN1C2=O [Compound VIc, 1,1′-{[(bisbutane-1,N-diyl)piperazine]dioxy}bis[(11aS)-7-methoxy-1,2,3,11a-tetrahydro-5H-pyrrolo[2,1-c][1,4]benzodiazepin-5-one]]
- Log LC 50 [1]: −4.00 mol/L
- Log LC 50 [2]: −4.00 mol/L
- Log GI 50 [3]: −6.89 mol/L
- Log GI 50 [4]: −7.63 mol/L
- Log LC 50 [4]: −4.00 mol/L
- Log10 GI50 mean graph midpoint (MG_MID) [5]: −7.70
- Log10 LC50 mean graph midpoint (MG_MID) [5]: −4.47
- Log10 TGI mean graph midpoint (MG_MID) [5]: −5.95
- Log GI 50 [6]: −7.99 mol/L
- Log LC 50 [6]: −6.26 mol/L
- Log LC 50 [7]: −4.00 mol/L
- Log GI 50 [8]: −7.65 mol/L
- Log GI 50 [9]: −7.81 mol/L
- Log LC 50 [9]: −4.60 mol/L
- Log LC 50 [10]: −5.59 mol/L
- Log LC 50 [12]: −4.00 mol/L
- Log GI 50 [13]: −7.84 mol/L
- Log LC 50 [13]: −4.67 mol/L
- Log GI 50 [14]: −7.54 mol/L
- Log LC 50 [14]: −4.00 mol/L
- Log GI 50 [15]: −7.89 mol/L
- Log LC 50 [15]: −4.00 mol/L
- Log LC 50 [16]: −4.69 mol/L
- Log GI 50 [17]: −7.86 mol/L
- Log LC 50 [17]: −6.68 mol/L
- Log LC 50 [18]: −4.00 mol/L
- Log LC 50 [19]: −4.00 mol/L
- Log GI 50 [20]: −7.68 mol/L
- Log LC 50 [20]: −4.00 mol/L
